Drawing on patent US12065443B2, “Compounds and pharmaceutical compositions thereof for the treatment of diseases” (priority 2017, dated 2024), this text covers IC50 for nine compounds.

pIC50: −log10 of the molar value.

Holding throughout (test): biochemical
One experiment has as its target T1, SIK1 (Homo sapiens, UniProt P57059).
T1 construct: purchased Carna Biosciences 02-131
The conditions noted are these: 33P radioactive SIK kinase assay, AMARA peptide, 10 μM ATP; read-out: SIK1 IC50. A digest of the protocol: (§1)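 AMARA peptide phosphorylation by SIK1–3 is quantified through ^33P uptake from a labeled/unlabeled ATP blend. Staurosporine at 10 μM final defines full inhibition, 1% DMSO the uninhibited signal. Quench uses phosphoric acid; counting follows filter capture.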

A further experiment has as its target T2, SIK2 (Homo sapiens, UniProt Q9H0K1).
T2 construct: purchased ThermoFisher Scientific PV4792
To be noted: 33P radioactive SIK kinase assay, AMARA peptide, 10 μM ATP. A digest of the protocol:
as §1

A further experiment addresses T3, SIK3 (Homo sapiens, UniProt Q9Y2K2).
T3 construct: purchased SignalChem S12-11G-100
The gist of the method:
as §1

T2 sequence (Q9H0K1 whole entry): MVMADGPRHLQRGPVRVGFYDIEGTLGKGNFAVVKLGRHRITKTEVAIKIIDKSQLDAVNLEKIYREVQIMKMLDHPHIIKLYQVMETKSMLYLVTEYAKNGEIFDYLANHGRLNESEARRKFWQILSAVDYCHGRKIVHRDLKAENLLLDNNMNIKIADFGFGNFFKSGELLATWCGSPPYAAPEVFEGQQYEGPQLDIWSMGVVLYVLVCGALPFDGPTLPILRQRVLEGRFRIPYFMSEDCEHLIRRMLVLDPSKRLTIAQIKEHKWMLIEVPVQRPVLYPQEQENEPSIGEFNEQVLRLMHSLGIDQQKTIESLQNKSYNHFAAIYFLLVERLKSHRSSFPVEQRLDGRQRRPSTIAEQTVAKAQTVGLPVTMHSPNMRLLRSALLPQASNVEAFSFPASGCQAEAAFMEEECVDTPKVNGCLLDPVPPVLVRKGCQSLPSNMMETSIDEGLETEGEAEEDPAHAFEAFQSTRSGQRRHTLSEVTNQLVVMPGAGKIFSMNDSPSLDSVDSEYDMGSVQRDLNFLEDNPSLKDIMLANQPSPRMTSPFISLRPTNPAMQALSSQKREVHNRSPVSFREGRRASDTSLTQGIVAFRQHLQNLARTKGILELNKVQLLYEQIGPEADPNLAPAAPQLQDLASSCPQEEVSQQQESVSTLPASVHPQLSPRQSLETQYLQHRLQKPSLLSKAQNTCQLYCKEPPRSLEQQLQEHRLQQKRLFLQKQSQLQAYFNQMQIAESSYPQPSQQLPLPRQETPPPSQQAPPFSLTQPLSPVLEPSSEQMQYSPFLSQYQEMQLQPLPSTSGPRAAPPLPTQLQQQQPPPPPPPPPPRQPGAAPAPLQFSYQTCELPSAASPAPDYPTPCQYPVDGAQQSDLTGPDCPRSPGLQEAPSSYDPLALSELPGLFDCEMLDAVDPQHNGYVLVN
T1 sequence (P57059 whole entry): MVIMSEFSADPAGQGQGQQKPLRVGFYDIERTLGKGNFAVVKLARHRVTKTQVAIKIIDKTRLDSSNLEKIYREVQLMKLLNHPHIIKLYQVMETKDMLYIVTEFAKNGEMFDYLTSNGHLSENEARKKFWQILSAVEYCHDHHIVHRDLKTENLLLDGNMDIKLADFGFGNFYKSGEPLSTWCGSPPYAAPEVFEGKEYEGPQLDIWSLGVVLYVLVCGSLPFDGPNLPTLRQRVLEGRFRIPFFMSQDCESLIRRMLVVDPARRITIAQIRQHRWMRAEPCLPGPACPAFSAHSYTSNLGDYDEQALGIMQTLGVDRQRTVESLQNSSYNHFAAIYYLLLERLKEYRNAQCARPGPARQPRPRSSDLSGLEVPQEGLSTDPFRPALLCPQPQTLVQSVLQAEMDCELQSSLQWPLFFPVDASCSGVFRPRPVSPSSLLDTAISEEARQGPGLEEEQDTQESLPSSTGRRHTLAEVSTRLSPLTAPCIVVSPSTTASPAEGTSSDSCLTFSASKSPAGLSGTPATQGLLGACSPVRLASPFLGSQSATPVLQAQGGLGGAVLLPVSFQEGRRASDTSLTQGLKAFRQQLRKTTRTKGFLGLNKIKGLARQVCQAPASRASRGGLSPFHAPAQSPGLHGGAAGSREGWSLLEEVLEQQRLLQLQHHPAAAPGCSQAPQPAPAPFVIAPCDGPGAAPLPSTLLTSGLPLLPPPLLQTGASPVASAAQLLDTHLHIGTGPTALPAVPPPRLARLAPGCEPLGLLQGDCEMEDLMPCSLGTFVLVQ
T3 sequence (Q9Y2K2 whole entry): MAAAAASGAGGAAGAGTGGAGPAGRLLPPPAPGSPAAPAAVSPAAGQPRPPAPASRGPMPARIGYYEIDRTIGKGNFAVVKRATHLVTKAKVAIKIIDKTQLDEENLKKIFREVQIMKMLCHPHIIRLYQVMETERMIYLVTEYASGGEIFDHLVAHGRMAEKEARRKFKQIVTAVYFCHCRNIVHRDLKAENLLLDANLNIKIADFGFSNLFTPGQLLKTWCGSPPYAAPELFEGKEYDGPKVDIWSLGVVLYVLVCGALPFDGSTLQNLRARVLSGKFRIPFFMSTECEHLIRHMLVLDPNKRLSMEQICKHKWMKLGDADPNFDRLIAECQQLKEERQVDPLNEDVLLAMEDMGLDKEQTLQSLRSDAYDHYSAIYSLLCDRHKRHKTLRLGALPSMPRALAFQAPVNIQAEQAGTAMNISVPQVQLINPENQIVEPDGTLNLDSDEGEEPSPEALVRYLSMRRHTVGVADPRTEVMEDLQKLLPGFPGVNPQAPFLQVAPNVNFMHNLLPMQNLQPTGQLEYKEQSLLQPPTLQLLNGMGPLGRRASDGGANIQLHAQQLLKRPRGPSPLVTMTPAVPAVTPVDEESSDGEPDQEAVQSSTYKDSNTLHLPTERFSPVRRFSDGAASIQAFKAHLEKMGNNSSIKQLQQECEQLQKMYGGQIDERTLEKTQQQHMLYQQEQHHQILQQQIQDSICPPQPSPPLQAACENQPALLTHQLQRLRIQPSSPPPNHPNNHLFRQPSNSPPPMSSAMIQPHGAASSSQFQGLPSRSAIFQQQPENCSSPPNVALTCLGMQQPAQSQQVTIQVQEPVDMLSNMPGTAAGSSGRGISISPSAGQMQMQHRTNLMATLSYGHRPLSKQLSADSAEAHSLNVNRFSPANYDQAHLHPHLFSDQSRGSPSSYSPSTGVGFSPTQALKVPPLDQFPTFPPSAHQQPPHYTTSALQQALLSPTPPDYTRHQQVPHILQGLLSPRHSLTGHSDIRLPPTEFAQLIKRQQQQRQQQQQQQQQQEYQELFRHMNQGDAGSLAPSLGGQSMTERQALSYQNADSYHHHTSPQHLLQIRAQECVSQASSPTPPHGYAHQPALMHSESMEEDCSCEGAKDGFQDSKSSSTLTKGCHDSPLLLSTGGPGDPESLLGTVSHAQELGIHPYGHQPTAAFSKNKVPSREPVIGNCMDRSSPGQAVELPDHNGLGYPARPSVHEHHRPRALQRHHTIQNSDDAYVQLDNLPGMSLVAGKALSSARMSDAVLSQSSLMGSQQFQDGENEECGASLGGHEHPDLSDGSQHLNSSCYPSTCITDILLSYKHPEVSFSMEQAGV

Usually pIC50 stands for the negative decadic logarithm of the IC50, by convention in mol/L. Regarding `COc1cc(-n2cnc3cc(-c4cnn(C)c4)ccc32)cc(OC)c1C(=O)N1CC(O)(C2CC2)C1` [compound 220, (3-cyclopropyl-3-hydroxy-azetidin-1-yl)-[2,6-dimethoxy-4-[5-(1-methylpyrazol-4-yl)benzimidazol-1-yl]phenyl]methanone], the pIC50 on SIK1, on SIK2 and on SIK3 was 7.00 to 8.00 each time.

`COc1cc(-c2cnc3cc(-c4cc(C)no4)ccn23)cc(OC)c1C(=O)N[C@@H](C)C(F)(F)F` [compound 224, 2,6-dimethoxy-4-[7-(3-methylisoxazol-5-yl)imidazo[1,2-a]pyridin-3-yl]-N-[(1S)-2,2,2-trifluoro-1-methyl-ethyl]benzamide]: the negative logarithm of the IC50 (pIC50) on SIK1, on SIK2 and against SIK3 was 6.30 to 7.00 throughout.

As for `COC(=O)C1CN(C(=O)c2c(OC)cc(-c3cnc4cc(-c5cnn(C)c5)ccn34)cc2OC)C1` [compound 226, methyl 1-[2,6-dimethoxy-4-[7-(1-methylpyrazol-4-yl)imidazo[1,2-a]pyridin-3-yl]benzoyl)azetidine-3-carboxylate], the pIC50 at SIK1, at SIK2 and on SIK3 was 7.00 to 8.00 throughout.

As to `COc1cncc(-c2ccn3c(-c4cc(OC)c(C(=O)NCC(F)(F)F)c(OC)c4)cnc3c2)c1` [compound 245, 2,6-dimethoxy-4-[7-(5-methoxy-3-pyridyl)imidazo[1,2-a]pyridin-3-yl]-N-(2,2,2-trifluoroethyl)benzamide], the results for the pIC50 on SIK1, on SIK2 and on SIK3 were 7.00 to 8.00, 7.00 to 8.00 and 8.00 to 11.00, respectively.

With `COc1cc(-c2cnc3cc(-c4cnc(N)nc4)ccn23)cc(OC)c1C(=O)NCC(F)(F)F` [compound 246, 4-[7-(2-aminopyrimidin-5-yl)imidazo[1,2-a]pyridin-3-yl]-2,6-dimethoxy-N-(2,2,2-trifluoroethyl)benzamide], the pIC50 on SIK1 is 7.00 to 8.00; on SIK2, 7.00 to 8.00; at SIK3, 8.00 to 11.00.

Turning to `COc1cc(-c2cnc3cc(-c4ccnnc4)ccn23)cc(OC)c1C(=O)NCC(F)(F)F` [compound 247, 2,6-dimethoxy-4-(7-pyridazin-4-ylimidazo[1,2-a]pyridin-3-yl)-N-(2,2,2-trifluoroethyl)benzamide], the pIC50 at SIK1 is 7.00 to 8.00; on SIK2 it was 7.00 to 8.00; at SIK3, 8.00 to 11.00.

As for `COc1cc(-c2cnc3cc(-c4cn(C)nc4C(F)(F)F)ccn23)cc(OC)c1C(=O)NCC(F)(F)F` [compound 249, 2,6-dimethoxy-4-[7-[1-methyl-3-(trifluoromethyl)pyrazol-4-yl]imidazo[1,2-a]pyridin-3-yl]-N-(2,2,2-trifluoroethyl)benzamide], the pIC50 at SIK1 was 6.30 to 7.00; at SIK2, 7.00 to 8.00; on SIK3, 7.00 to 8.00.

For `COc1cc(-c2cnc3cc(-c4cccnc4OC)ccn23)cc(OC)c1C(=O)NCC(F)(F)F` [compound 250, 2,6-dimethoxy-4-[7-(2-methoxy-3-pyridyl)imidazo[1,2-a]pyridin-3-yl]-N-(2,2,2-trifluoroethyl)benzamide], the pIC50 is 6.30 to 7.00 on SIK1, 7.00 to 8.00 on SIK2 and 7.00 to 8.00 at SIK3.

As to `COc1cc(-c2cnc3cc(-c4cncnc4C(C)C)ccn23)cc(OC)c1C(=O)NCC(F)(F)F` [compound 253, 4-[7-(4-isopropylpyrimidin-5-yl)imidazo[1,2-a]pyridin-3-yl]-2,6-dimethoxy-N-(2,2,2-trifluoroethyl)benzamide], the pIC50 on SIK1 was less than 6.30; at SIK2 it was less than 6.30; at SIK3, 6.30 to 7.00.
